Blank lines part the entries; values can stand above or below the compound they belong to. Starred links: 1 amine or outer side, 2 acyl side, 3 side chain; linkers in the order of their positions; H or OH if unused. Positions of bridges follow the written chain, without caps; N, C: chain ends. Non-standard residues stand in square brackets, D forms with d. Residues, ends and D or L forms follow the SMILES beside them. Suc = O=C(CCC(=O)[*:2])[*:1]; Nle = CCCC[C@H](N)C(=O)O
Assays:
[1] = test system: thrombin generation in human platelet poor plasma with skeletal muscle myosin; assay: Assay 2A: thrombin generation, recalcification of human platelet poor plasma + myosin; type: biochemical; settings: human platelet poor plasma 30%, myosin 50 nM, CaCl2 10 mmol/L; read-out: 2A (recalcification +myosin)
Protocol: Activities of the various peptides and derivative compounds were also examined via assays using recalcification of human plasma. [One of] these assay format (2A) involves monitoring thrombin generation in platelet poor plasma (PPP). Specifically, pooled normal human platelet poor plasma (PPP) (obtained from George King Bio Medical Inc., Overland Park, Kans.) (30%) was incubated with skeletal muscle myosin at 50 nM in the presence of peptide in DMSO or DMSO alone for 5 min at 37° C. Then, fluorogenic thrombin substrate solution (Z-Gly-Gly-Arg-AMC) (I-1140) with CaCl2 (10 mmol/L final) alone was added to the reaction mixture (total 110 μl) to initiate coagulation. Thrombin generation was followed continuously for 25 min using SPECTRAmax GEMINI XS fluorometer (Molecular Devices, Sunnyvale, Calif.) with excitation and emission wavelengths set at 360 and 460 nm, respectively. The first derivative of fluorescence versus time was used to produce thrombin generation curves with the correction for substrate consumption and inner filter effect. For this assay 96 well plate (total 110 μL) or 384 well plates (total 30 μL) were used.
Activities obtained from Assay 2A (recalcification of human plasma in the presence of myosin) were used to rank the various peptides listed in Table 3. As noted above, this assay monitors recalcification of plasma to stimulate thrombin generation. In this assay, potency of the compounds was determined as the peptide concentration for 50% inhibition of thrombin generation, defined as “IC50”.

[2] = test system: skeletal muscle myosin-supported prothrombin activation by factors Xa and Va; assay: Assay 1A: prothrombin activation by factor Xa/factor Va/myosin in purified system; type: biochemical, human factors Xa and Va; rabbit skeletal muscle myosin; settings: for inhibition of myosin-supported prothrombin activation at 100 μM: peptide 100 μM, FIG. 1A; for inhibition of myosin's procoagulant activity: data not shown
[3] = target: skeletal muscle myosin-supported prothrombin activation by factors Xa and Va (Homo sapiens, UniProt P00742); assay: as above; type: biochemical, human factors Xa and Va; rabbit skeletal muscle myosin; settings: purified system; skeletal muscle myosin, factor Va 5 nM, factor Xa 0.2 nM, prothrombin 0.75 μM, 10 min; read-out: 1A (+myosin)
skeletal muscle myosin-supported prothrombin activation by factors Xa and Va (Homo sapiens, UniProt P00742), sequence (P00742 41-179): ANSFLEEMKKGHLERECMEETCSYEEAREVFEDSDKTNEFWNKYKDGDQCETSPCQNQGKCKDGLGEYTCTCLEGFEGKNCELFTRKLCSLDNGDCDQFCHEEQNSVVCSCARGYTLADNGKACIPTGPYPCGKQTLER
skeletal muscle myosin-supported prothrombin activation by factors Xa and Va (Homo sapiens, UniProt P00742), sequence (P00742 235-488): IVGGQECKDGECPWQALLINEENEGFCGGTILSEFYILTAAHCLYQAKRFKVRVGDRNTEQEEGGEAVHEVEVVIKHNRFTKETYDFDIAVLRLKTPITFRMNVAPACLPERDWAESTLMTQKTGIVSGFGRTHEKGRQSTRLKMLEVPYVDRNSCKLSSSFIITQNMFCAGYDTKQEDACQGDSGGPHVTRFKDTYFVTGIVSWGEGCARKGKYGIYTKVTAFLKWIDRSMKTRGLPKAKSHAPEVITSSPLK
skeletal muscle myosin-supported prothrombin activation by factors Xa and Va (Homo sapiens, UniProt P00742), sequence (P12259 29-737 partner): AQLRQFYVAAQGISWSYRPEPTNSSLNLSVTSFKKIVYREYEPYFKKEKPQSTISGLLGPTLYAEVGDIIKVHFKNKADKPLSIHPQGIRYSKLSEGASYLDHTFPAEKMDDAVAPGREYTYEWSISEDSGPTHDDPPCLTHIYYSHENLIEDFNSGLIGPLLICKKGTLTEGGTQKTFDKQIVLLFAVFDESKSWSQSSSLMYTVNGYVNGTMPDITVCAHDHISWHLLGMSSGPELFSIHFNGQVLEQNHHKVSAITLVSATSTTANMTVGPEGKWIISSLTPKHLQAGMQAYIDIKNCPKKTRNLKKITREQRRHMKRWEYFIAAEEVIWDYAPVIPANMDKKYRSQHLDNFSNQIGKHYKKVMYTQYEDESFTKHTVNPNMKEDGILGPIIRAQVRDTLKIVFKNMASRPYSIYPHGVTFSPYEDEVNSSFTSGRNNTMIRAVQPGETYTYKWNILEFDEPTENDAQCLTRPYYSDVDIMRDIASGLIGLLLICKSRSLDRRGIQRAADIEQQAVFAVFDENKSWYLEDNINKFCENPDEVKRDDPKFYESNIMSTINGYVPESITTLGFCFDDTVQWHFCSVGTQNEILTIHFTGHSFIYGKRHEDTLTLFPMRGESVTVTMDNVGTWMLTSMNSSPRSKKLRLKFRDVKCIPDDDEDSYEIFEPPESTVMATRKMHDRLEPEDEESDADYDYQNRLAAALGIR
skeletal muscle myosin-supported prothrombin activation by factors Xa and Va (Homo sapiens, UniProt P00742), sequence (P12259 1574-2224 partner): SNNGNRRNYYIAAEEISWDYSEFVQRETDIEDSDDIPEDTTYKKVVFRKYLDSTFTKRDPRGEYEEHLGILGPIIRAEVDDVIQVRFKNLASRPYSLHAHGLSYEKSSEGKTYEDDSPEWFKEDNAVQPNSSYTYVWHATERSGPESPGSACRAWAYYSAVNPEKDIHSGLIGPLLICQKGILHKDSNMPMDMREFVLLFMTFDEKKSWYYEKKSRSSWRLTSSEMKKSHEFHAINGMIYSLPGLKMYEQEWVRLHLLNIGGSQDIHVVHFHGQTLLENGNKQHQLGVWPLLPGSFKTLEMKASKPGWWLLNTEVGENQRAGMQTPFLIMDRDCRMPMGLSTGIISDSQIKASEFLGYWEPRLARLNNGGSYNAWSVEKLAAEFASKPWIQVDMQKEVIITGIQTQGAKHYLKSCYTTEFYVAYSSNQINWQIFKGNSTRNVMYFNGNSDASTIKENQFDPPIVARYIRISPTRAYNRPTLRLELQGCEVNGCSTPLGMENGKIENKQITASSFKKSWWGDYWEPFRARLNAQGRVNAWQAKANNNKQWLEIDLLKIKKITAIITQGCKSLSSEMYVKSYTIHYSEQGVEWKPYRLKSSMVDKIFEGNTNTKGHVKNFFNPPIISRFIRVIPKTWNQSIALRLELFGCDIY

IC50 [1]: 9.4 µM
Compound: CC[C@H](C)[C@H](NC(=O)[C@H](C)NC(=O)[C@H](CCC(=O)O)NC(=O)[C@H](CCCNC(=N)N)NC(=O)[C@H](CCCNC(=N)N)NC(=O)[C@H](CCC(=O)O)NC(=O)[C@@H]1CCCCNC(=O)CCC(=O)NCCCC[C@@H]2NC(=O)[C@H](C)NC(=O)[C@H](CC(C)C)NC(=O)[C@H](Cc3ccccc3)NC(=O)[C@@H](NC(=O)[C@H](CCCNC(=N)N)NC(=O)[C@H](CS)NC(=O)[C@H](CCCNC(=N)N)NC(=O)[C@H](C)N)CCCCNC(=O)CCC(=O)NCCCC[C@H](NC(=O)[C@H](CCC(=O)O)NC(=O)[C@H](C(C)C)NC2=O)C(=O)N[C@@H](CCC(N)=O)C(=O)N[C@@H](CCCNC(=N)N)C(=O)N[C@@H](CCSC)C(=O)N1)C(=O)N[C@@H](Cc1ccccc1)C(=O)N[C@@H](CS)C(=O)N[C@H](C(=O)N[C@@H](CCC(N)=O)C(=O)N[C@@H](Cc1ccc(O)cc1)C(=O)N[C@@H](CC(N)=O)C(=O)N[C@H](C(=O)N[C@@H](CCCNC(=N)N)C(=O)N[C@@H](CO)C(=O)N[C@@H](Cc1ccccc1)C(=O)N[C@@H](CCSC)C(=O)N[C@@H](CC(N)=O)C(=O)N[C@H](C(=O)N[C@@H](CCCCN)C(=O)N[C@@H](Cc1c[nH]cn1)C(=O)N[C@@H](Cc1c[nH]c2ccccc12)C(=O)N1CCC[C@H]1C(=O)N[C@@H](Cc1c[nH]c2ccccc12)C(N)=O)C(C)C)[C@@H](C)CC)[C@@H](C)CC [HC154] (H-ARCRKFLAKVEKQRMKERREAIFCIQYNIRSFMNVKHWPW-NH2; linker 5-12, 9-16 via Suc (inferred); N-terminus and C-terminus assumed)

IC50 [1]: 10 µM
Compound: CCCC[C@H](NC(=O)[C@H](Cc1ccccc1)NC(=O)[C@H](CO)NC(=O)[C@H](CCCNC(=N)N)NC(=O)[C@@H](NC(=O)[C@H](CC(N)=O)NC(=O)[C@H](Cc1ccc(O)cc1)NC(=O)[C@H](CCC(N)=O)NC(=O)[C@@H](NC(=O)[C@H](CS)NC(=O)[C@H](Cc1ccccc1)NC(=O)[C@@H](NC(=O)[C@H](C)NC(=O)[C@H](CCC(=O)O)NC(=O)[C@H](CCCNC(=N)N)NC(=O)[C@H](CCCNC(=N)N)NC(=O)[C@H](CCC(=O)O)NC(=O)[C@@H](NC(=O)[C@H](CCCC)NC(=O)[C@H](CCCNC(=N)N)NC(=O)[C@H](CCC(N)=O)NC(=O)[C@H](Cc1ccc(O)cc1)NC(=O)[C@H](CCC(=O)O)NC(=O)[C@@H](NC(=O)[C@H](CCCNC(=N)N)NC(=O)[C@H](C)NC(=O)[C@H](CC(C)C)NC(=O)[C@H](Cc1ccccc1)NC(=O)CNC(=O)[C@H](CCCNC(=N)N)NC(=O)[C@H](CS)NC(=O)[C@H](CCCNC(=N)N)NC(=O)[C@H](C)N)C(C)C)C(C)C)[C@@H](C)CC)[C@@H](C)CC)[C@@H](C)CC)C(=O)N[C@@H](CC(N)=O)C(=O)N[C@H](C(=O)N[C@@H](CCCCN)C(=O)N[C@@H](Cc1c[nH]cn1)C(=O)N[C@@H](Cc1c[nH]c2ccccc12)C(=O)N1CCC[C@H]1C(=O)N[C@@H](Cc1c[nH]c2ccccc12)C(N)=O)C(C)C [HC095] (H-ARCRGFLARVEYQR[Nle]VERREAIFCIQYNIRSF[Nle]NVKHWPW-NH2; N-terminus and C-terminus assumed)

IC50 [1]: 6.4 µM
Compound: CC[C@H](C)[C@H](NC(=O)[C@H](C)NC(=O)[C@H](CCC(=O)O)NC(=O)[C@H](CCCNC(=N)N)NC(=O)[C@H](CCCNC(=N)N)NC(=O)[C@H](CCC(=O)O)NC(=O)[C@@H]1CCCCNC(=O)CCC(=O)NCCCC[C@H](NC(=O)[C@H](C)NC(=O)[C@H](CC(C)C)NC(=O)[C@H](Cc2ccccc2)NC(=O)CNC(=O)[C@H](CCCNC(=N)N)NC(=O)[C@H](CS)NC(=O)[C@H](CCCNC(=N)N)NC(=O)[C@H](C)N)C(=O)N[C@@H](C(C)C)C(=O)N[C@@H](CCC(=O)O)C(=O)N[C@@H](Cc2ccc(O)cc2)C(=O)N[C@@H](CCC(N)=O)C(=O)N[C@@H](CCCNC(=N)N)C(=O)N[C@@H](CCSC)C(=O)N1)C(=O)N[C@@H](Cc1ccccc1)C(=O)N[C@@H](CS)C(=O)N[C@H](C(=O)N[C@@H](CCC(N)=O)C(=O)N[C@@H](Cc1ccc(O)cc1)C(=O)N[C@@H](CC(N)=O)C(=O)N[C@H](C(=O)N[C@@H](CCCNC(=N)N)C(=O)N[C@H]1CCCCNC(=O)CCC(=O)NCCCC[C@@H](C(=O)N2CCC[C@H]2C(=O)N[C@@H](Cc2c[nH]c3ccccc23)C(N)=O)NC(=O)[C@H](Cc2c[nH]cn2)NC(=O)[C@H](CCCCN)NC(=O)[C@H](C(C)C)NC(=O)[C@H](CC(N)=O)NC(=O)[C@H](CCSC)NC(=O)[C@H](Cc2ccccc2)NC1=O)[C@@H](C)CC)[C@@H](C)CC [HC161] (H-ARCRGFLAKVEYQRMKERREAIFCIQYNIRKFMNVKHKPW-NH2; linker 9-16, 31-38 via Suc (inferred); N-terminus and C-terminus assumed)

IC50 [1]: 15 µM
Compound: CC[C@H](C)[C@H](NC(=O)[C@H](C)NC(=O)[C@H](CCC(=O)O)NC(=O)[C@H](CCCNC(=N)N)NC(=O)[C@H](CCCNC(=N)N)NC(=O)[C@H](CCC(=O)O)NC(=O)[C@@H](NC(=O)[C@H](CCSC)NC(=O)[C@H](CCCNC(=N)N)NC(=O)[C@H](CCC(N)=O)NC(=O)[C@H](Cc1ccc(O)cc1)NC(=O)[C@H](CCC(=O)O)NC(=O)[C@@H](NC(=O)[C@H](CCCNC(=N)N)NC(=O)[C@H](C)NC(=O)[C@H](CC(C)C)NC(=O)[C@H](Cc1ccccc1)NC(=O)CNC(=O)[C@H](CCCNC(=N)N)NC(=O)[C@H](CS)NC(=O)[C@H](CCCNC(=N)N)NC(=O)[C@H](C)N)C(C)C)C(C)C)C(=O)N[C@@H](Cc1ccccc1)C(=O)N[C@@H](CS)C(=O)N[C@H](C(=O)N[C@@H](CCC(N)=O)C(=O)N[C@H]1CCCCNC(=O)CCC(=O)NCCCC[C@@H](C(=O)N[C@H](C(=O)N[C@@H](CCCCN)C(=O)N[C@@H](Cc2c[nH]cn2)C(=O)N[C@@H](Cc2c[nH]c3ccccc23)C(=O)N2CCC[C@H]2C(=O)N[C@@H](Cc2c[nH]c3ccccc23)C(N)=O)C(C)C)NC(=O)[C@H](CCSC)NC(=O)[C@H](Cc2ccccc2)NC(=O)[C@H](CO)NC(=O)[C@H](CCCNC(=N)N)NC(=O)[C@H]([C@@H](C)CC)NC(=O)[C@H](CC(N)=O)NC1=O)[C@@H](C)CC [HC077] (H-ARCRGFLARVEYQRMVERREAIFCIQKNIRSFMKVKHWPW-NH2; linker 27-34 via Suc; N-terminus and C-terminus assumed)

Compound: Ac-SNEELNAKKIEFEQFLPMMQAISN-NH2 [ELC99-122]
inhibition of myosin-supported prothrombin activation at 100 μM [2]: did not

Compound: CN1CCN(CCCN2c3ccccc3Sc3ccc(C(F)(F)F)cc32)CC1 [TFP, trifluoperazine, reference compound]
inhibition of myosin-supported prothrombin activation ([2]; dose-dependent studies, FIG. 4, TFP 0-100 μM, ELC peptides 0-300 μM): inhibits

Compound: Ac-GAELRHVLATLGEKMKEEEVEALMA-NH (Ac-GAELRHVLATLGEKMKEEEVEALMA-NH2) [ELC149-173]
inhibition of myosin-supported prothrombin activation at 100 μM [2]: did not

Compound: Cc1ccc(S(=O)(=O)NCc2ccccc2)cc1 [N-benzyl-p-toluene sulfonamide, reference compound]
inhibition of myosin's procoagulant activity ([2]; up to 0.7 mM): did not inhibit

Compound: COC(=O)N1CCN(Cc2cccc(NC(=O)Nc3ccc(C)nc3)c2F)CC1 [omecamtiv mecarbil, reference compound]
inhibition of myosin's procoagulant activity ([2]; up to 50 μM): did not inhibit

IC50 [3]: 5.2 µM
Compound: CC[C@H](C)[C@H](NC(=O)[C@H](C)N)C(=O)N[C@@H](Cc1ccccc1)C(=O)N[C@@H](C)C(=O)N[C@H](C(=O)N[C@@H](CCC(N)=O)C(=O)N[C@@H](Cc1ccc(O)cc1)C(=O)N[C@@H](CC(N)=O)C(=O)N[C@H](C(=O)N[C@@H](CCCNC(=N)N)C(=O)N[C@@H](CO)C(=O)N[C@@H](Cc1ccccc1)C(=O)N[C@@H](CCSC)C(=O)N[C@@H](CC(N)=O)C(=O)N[C@H](C(=O)N[C@@H](CCCCN)C(=O)N[C@@H](Cc1c[nH]cn1)C(=O)N[C@@H](Cc1c[nH]c2ccccc12)C(=O)N1CCC[C@H]1C(=O)N[C@@H](Cc1c[nH]c2ccccc12)C(=O)N[C@@H](CCSC)C(=O)N[C@@H](CCCCN)C(N)=O)C(C)C)[C@@H](C)CC)[C@@H](C)CC [HC119] (H-AIFAIQYNIRSFMNVKHWPWMK-NH2; N-terminus assumed)

Compound: Cc1ccc2c(c1)C(=O)C1(O)CCN(c3ccccc3)C1=N2 (single isomer, unassigned; (-)) [(-) blebbistatin, reference compound]
inhibition of myosin's procoagulant activity ([2]; up to 65 μM): did not inhibit
